Measured values as given in ChEMBL document CHEMBL1949531, “Synthesis and antiviral activities of novel gossypol derivatives” (Bioorg Med Chem Lett, 2012).
Activity calls are given as the source filed them. The rule behind the calls is not given here.

Columns and labels:
[1] = test system: Human immunodeficiency virus 1; test: Antiviral activity against HIV1 3B infected human TZM-bl cells assessed as inhibition of viral replication by luciferase reporter assay; assay type: functional, organism-based
[2] = Cytotoxicity in human TZM-bl cells by MTT assay; assay type: cell-based
Albumin = Albumin (Homo sapiens, UniProt P02768); test: Binding affinity to human serum albumin by fluorescence quenching assay; assay type: ADME; settings: isolated protein
Chain of Albumin (P02768 whole entry): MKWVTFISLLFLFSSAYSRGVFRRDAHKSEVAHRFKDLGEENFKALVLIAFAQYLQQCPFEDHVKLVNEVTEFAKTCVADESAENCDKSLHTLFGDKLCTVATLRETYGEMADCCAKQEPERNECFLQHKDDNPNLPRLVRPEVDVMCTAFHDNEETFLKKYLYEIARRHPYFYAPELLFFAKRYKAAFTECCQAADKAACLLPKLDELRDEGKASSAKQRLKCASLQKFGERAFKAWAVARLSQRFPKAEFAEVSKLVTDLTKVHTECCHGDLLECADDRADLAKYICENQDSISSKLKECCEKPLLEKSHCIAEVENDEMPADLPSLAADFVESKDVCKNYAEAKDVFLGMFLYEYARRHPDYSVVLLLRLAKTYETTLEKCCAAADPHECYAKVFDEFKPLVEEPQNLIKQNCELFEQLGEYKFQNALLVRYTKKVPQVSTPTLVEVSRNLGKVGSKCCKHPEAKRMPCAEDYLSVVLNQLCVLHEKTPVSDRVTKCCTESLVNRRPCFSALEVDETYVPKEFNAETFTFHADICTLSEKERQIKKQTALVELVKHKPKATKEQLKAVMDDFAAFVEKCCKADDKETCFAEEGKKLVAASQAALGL

[3] = target: Human immunodeficiency virus type 1 reverse transcriptase (Human immunodeficiency virus 1) (UniProt Q72547); test: Inhibition of HIV1 reverse transcriptase activity at 20 ug/ml
[4] = target: Human immunodeficiency virus type 1 reverse transcriptase (Human immunodeficiency virus 1) (UniProt Q72547); test: Inhibition of HIV1 reverse transcriptase activity at 4 ug/ml
[5] = target: Human immunodeficiency virus type 1 reverse transcriptase (Human immunodeficiency virus 1) (UniProt Q72547); test: Inhibition of HIV1 reverse transcriptase activity at 0.8 ug/ml
[6] = Cytotoxicity against MDCK cells by MTT assay; assay type: cell-based, Canis lupus familiaris; settings: dog
[7] = target: Human immunodeficiency virus type 1 reverse transcriptase (Human immunodeficiency virus 1) (UniProt Q72547); test: Inhibition of HIV1 reverse transcriptase activity
[8] = test system: Human immunodeficiency virus 1; test: Antiviral activity against HIV1 3B infected human TZM-bl cells assessed as inhibition of viral replication at 10 uM treated 8 hrs after viral infection by luciferase reporter assay; assay type: functional, organism-based
[9] = Selectivity index, ratio of CC50 for human TZM-bl cells to IC50 for HIV1 3B; assay type: functional
[10] = test system: Human immunodeficiency virus 1; test: Antiviral activity against HIV1 3B infected human TZM-bl cells assessed as inhibition of viral replication at 10 uM treated immediately after infection by luciferase reporter assay; assay type: functional, organism-based
[11] = test system: Human immunodeficiency virus 1; test: Antiviral activity against HIV1 3B infected human TZM-bl cells assessed as inhibition of viral replication at 10 uM treated 2 hrs after viral infection by luciferase reporter assay; assay type: functional, organism-based
Influenza A virus = test: Antiviral activity against Influenza A virus (A/Vietnam/1194/2004(H5N1)) infected in MDCK cells assessed as inhibition of viral replication by plaque reduction assay; assay type: functional, organism-based
[12] = Selectivity index, ratio of CC50 for MDCK cells to IC50 for Influenza A virus (A/Vietnam/1194/2004(H5N1)); assay type: functional
[13] = target: Neuraminidase (Influenza A virus) (UniProt B4URF0); test: Inhibition of Influenza A virus neuraminidase up to 10 uM
Chain of Neuraminidase (Influenza A virus) (B4URF0 as listed by the source): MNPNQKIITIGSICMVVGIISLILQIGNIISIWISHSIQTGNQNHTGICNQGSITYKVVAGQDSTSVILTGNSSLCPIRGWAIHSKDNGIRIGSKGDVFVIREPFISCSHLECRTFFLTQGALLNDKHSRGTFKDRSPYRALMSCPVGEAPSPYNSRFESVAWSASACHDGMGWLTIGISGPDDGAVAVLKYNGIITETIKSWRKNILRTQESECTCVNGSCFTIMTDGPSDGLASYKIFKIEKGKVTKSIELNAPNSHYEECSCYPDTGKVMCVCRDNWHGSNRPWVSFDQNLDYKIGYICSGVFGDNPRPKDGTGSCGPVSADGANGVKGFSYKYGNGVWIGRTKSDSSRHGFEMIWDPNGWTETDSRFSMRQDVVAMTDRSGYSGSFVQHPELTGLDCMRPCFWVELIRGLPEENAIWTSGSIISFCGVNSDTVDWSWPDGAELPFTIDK

[14] = Human immunodeficiency virus 1, 3B, TZM-bl, read-out: IC50

| Compound | IC50 ([1]; tzm-bl) | CC50 [2] [nM] | Ka (Albumin) | inhibition [3] [%] | inhibition [4] [%] | inhibition [5] | CC50 [6] [nM] | inhibition [7] | IC50 [1, 14] [nM] | inhibition [8] | Ratio CC50/IC50 [9] | inhibition [10] | inhibition [11] | IC50 (Influenza A virus) [nM] | Ratio CC50/IC50 [12] | inhibition [13] |
| --- | --- | --- | --- | --- | --- | --- | --- | --- | --- | --- | --- | --- | --- | --- | --- | --- |
| Cc1cc2c(C(C)C)c(O)c(O)c(C=O)c2c(O)c1-c1c(C)cc2c(C(C)C)c(O)c(O)c(C=O)c2c1O [GOSSYPOL] | Not Active | 9760 | 2.3906 ×10⁵ L/mol | 73.2 | 76.3 | inactive | 3530 | Dose-dependent effect |  |  |  |  |  |  |  |  |
| Cc1cn([C@H]2C[C@H](N=[N+]=[N-])[C@@H](CO)O2)c(=O)[nH]c1=O [ZIDOVUDINE] |  |  |  |  |  |  |  |  | 2.8 | Active |  |  |  |  |  |  |
| CC[C@H](C)[C@H](N/C=C1\C(=O)C(O)=C(C(C)C)c2cc(C)c(-c3c(C)cc4c(c3O)/C(=C/N[C@H](C(=O)[O-])[C@@H](C)CC)C(=O)C(O)=C4C(C)C)c(O)c21)C(=O)[O-].[Na+].[Na+] |  | 64500 | 5.3223 ×10⁴ L/mol |  |  |  | > 42300 |  | 1120 |  | 57.57 | Active | inactive | 340 | >124.41 | inactive |
| Cc1cc2c(c(O)c1-c1c(C)cc3c(c1O)/C(=C/N[C@@H](Cc1c[nH]c4ccccc14)C(=O)[O-])C(=O)C(O)=C3C(C)C)/C(=C/N[C@@H](Cc1c[nH]c3ccccc13)C(=O)[O-])C(=O)C(O)=C2C(C)C.[Na+].[Na+] |  | 48000 | 9.2747 ×10⁴ L/mol |  |  |  | > 35700 |  | 990 |  | 48.43 | Active | inactive | 280 | >127.46 | inactive |
